In patent US8629149B2, “Oxopiperazine derivatives for the treatment of pain and epilepsy” (Zalicus Pharmaceuticals Ltd., priority 2009, dated 2014):

Columns and labels:
SNL L5/L6 rats = experiment: L5/L6 spinal nerve ligation (SNL) Chung pain model, tactile allodynia (von Frey); type: in vivo, rat; settings: for Rat SNL tactile allodynia, anti-allodynia (statement): compared to baseline and post-SNL
Source text: The Spinal Nerve Ligation is an animal model representing peripheral nerve injury generating a neuropathic pain syndrome. In this model experimental animals develop the clinical symptoms of tactile allodynia and hyperalgesia. L5/L6 Spinal nerve ligation (SNL) injury was induced using the procedure of Kim and Chung (Kim et al., Pain 50:355-363 (1992)) in male Sprague-Dawley rats (Harlan; Indianapolis, Ind.) weighing 200 to 250 grams.
Anaesthesia was induced with 2% isofluorane in O2 at 2 L/min and maintained with 0.5% isofluorane in O2. Rats were then shaved and aseptically prepared for surgeries. A 2 cm paraspinal incision was made at the level of L4-S2. L4/L5 was exposed by removing the transverse process above the nerves with a small rongeur. The L5 spinal nerve is the larger of the two visible nerves below the transverse process and lies closest to the spine. The L6 spinal nerve is located beneath the corner of the slope bone. A home-made glass Chung rod was used to hook L5 or L6 and a pre-made slip knot of 4.0 silk suture was placed on the tip of the rod just above the nerve and pulled underneath to allow for the tight ligation. The L5 and L6 spinal nerves were tightly ligated distal to the dorsal root ganglion. The incision was closed, and the animals were allowed to recover for 5 days.
Sham control rats underwent the same operation and handling as the experimental animals, but without SNL.
Prior to initiating drug delivery, baseline behavioural testing data is obtained. At selected times after infusion of the Test or Control Article behavioural data can then be collected again.
The assessment of tactile allodynia consisted of measuring the withdrawal threshold of the paw ipsilateral to the site of nerve injury in response to probing with a series of calibrated von Frey filaments (innocuous stimuli). Animals were acclimated to the suspended wire-mesh cages for 30 min before testing. Each von Frey filament was applied perpendicularly to the plantar surface of the ligated paw of rats for 5 sec. A positive response was indicated by a sharp withdrawal of the paw. For rats, the first testing filament is 4.31. Measurements were taken before and after administration of test articles. […] The protocol was repeated until three changes in behaviour were determined (“up and down” method) (Chaplan et al., J. Neurosci. Methods 53:55-63 (1994)). The 50% paw withdrawal threshold was determined as (10^[Xf+kδ])/10,000, where Xf=the value of the last von Frey filament employed, k=Dixon value for the positive/negative pattern, and δ=the logarithmic difference between stimuli. The cut-off values for rats were no less than 0.2 g and no higher than 15 g (5.18 filament); for mice no less than 0.03 g and no higher than 2.34 g (4.56 filament). A significant drop of the paw withdrawal threshold compared to the pre-treatment baseline is considered tactile allodynia.
Rat SNL tactile allodynia were tested for Compounds 1-4 and 9-12 at 60 minutes compared to baseline and post-SNL. […] FIG. 1 is a plot of the antiallodynic effects of compound 4 (i.p.) tested in SNL L5/L6 rats using von Frey at three different doses, namely 3, 10 and 30 mpk, compared to vehicle alone. […] Rat SNL tactile allodynia were tested at 1, 2 and 4 hours after drug treatment (Table 6).

[1] = Rat Early Pharmacokinetic (EPK) study; type: in vivo; settings: 30 mg/kg PO, 0.5% CMC; for Tmax: male, Sprague-Dawley, blood
Description: Male Sprague-Dawley rats were dosed via oral (PO) gavage in the detailed formulation. Blood samples were collected from the animals at 6 timepoints out to 4 hours post-dose. Pharmacokinetic analysis was performed on the LC-MS/MS measured concentrations for each timepoint of each compound.

[2] = target: T1, Nav1.7 channels expressed in HEK cells (Homo sapiens, UniProt Q15858); experiment: Nav1.7 voltage-clamp electrophysiological assay (enhancement of slow inactivation); type: cell-based; settings: n 5 cells
T1 construct: expressed in transfected cells; host or cells: HEK cells
Description: To examine the effects of compounds on enhancement of slow inactivation of Nav1.7 and Nav1.8 channels expressed in HEK cells the culture media was replaced with an extracellular solution containing (in mM): 137 NaCl, 4 KCl, 1.8 CaCl2, 1 MgCl2, 10 HEPES, 10 glucose, pH adjusted to 7.4 with NaOH. The intracellular solution contained (in mM): 130 KCl, 1 MgCl2, 5 EGTA, 10 HEPES, 5 K2ATP, adjusted to pH 7.3 with KOH. Whole-cell recordings, preparation and application of test compounds were performed in a similar manner to the Cav3.2 electrophysiological assays. Voltage protocols were applied to quantify the effects of test compounds to enhance slow inactivation for Nav1.7 and Nav1.8.

T1 sequence (Q15858 whole entry): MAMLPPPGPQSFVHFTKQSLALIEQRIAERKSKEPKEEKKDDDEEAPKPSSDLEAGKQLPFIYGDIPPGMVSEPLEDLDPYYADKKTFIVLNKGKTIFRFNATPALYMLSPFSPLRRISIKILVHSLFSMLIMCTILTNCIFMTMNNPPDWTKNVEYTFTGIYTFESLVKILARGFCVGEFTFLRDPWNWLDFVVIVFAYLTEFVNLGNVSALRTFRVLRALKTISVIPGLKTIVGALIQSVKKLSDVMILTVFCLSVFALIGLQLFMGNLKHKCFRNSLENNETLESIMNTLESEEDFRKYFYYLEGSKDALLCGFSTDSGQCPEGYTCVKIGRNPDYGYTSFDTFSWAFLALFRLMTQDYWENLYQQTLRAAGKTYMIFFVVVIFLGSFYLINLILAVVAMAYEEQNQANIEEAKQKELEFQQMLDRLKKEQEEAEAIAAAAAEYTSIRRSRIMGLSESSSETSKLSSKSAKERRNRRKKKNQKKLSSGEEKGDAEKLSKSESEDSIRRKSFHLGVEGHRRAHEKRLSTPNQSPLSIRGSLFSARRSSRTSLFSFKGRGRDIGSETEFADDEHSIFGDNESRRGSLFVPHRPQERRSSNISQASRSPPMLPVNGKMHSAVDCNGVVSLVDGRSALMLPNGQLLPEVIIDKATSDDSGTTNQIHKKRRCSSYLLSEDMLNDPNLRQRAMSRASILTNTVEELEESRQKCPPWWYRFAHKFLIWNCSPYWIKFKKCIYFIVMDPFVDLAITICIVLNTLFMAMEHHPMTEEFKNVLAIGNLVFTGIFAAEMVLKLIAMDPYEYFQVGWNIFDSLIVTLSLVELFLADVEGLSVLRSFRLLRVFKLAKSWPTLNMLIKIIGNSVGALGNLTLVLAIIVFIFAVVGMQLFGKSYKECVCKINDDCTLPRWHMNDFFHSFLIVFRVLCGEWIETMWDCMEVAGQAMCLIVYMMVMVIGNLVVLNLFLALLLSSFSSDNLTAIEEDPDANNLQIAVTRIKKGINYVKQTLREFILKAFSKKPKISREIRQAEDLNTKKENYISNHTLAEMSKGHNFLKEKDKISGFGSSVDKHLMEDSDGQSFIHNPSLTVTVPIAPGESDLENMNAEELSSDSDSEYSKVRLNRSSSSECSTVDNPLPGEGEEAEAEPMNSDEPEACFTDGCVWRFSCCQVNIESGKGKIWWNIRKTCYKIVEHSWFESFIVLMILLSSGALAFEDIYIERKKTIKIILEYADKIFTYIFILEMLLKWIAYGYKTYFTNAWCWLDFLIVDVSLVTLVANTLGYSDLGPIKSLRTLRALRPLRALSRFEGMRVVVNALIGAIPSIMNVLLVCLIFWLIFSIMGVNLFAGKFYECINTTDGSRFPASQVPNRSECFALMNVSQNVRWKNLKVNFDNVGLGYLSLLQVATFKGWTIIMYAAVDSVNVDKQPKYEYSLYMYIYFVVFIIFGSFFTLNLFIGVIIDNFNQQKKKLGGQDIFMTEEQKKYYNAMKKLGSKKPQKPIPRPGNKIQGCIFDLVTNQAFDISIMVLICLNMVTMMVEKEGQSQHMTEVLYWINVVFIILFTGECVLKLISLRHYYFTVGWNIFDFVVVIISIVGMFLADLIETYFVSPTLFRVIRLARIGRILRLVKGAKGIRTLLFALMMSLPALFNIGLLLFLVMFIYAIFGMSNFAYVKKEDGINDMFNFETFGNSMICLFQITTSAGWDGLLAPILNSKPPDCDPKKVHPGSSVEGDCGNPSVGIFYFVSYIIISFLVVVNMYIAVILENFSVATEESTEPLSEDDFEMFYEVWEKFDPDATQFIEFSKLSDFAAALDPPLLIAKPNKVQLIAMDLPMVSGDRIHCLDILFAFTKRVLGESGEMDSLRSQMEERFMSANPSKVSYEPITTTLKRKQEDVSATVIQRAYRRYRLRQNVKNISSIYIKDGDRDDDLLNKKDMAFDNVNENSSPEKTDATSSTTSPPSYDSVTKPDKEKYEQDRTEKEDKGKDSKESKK

Dose Normalized AUC [1] [nM·h] | Dose Normalized Cmax [1] [nM] | Tmax [1] [min] | Fraction current remaining ([2]; concentration tested 10 μM) | Fraction current remaining ([2]; concentration tested 100 μM) | Structure (SMILES) | Rat SNL Tactile Allodynia (% Antiallodynia) (SNL L5/L6 rats; 1 hour after drug treatment) [%] | Rat SNL Tactile Allodynia (% Antiallodynia) (SNL L5/L6 rats; 2 hours after drug treatment) [%] | Rat SNL Tactile Allodynia (% Antiallodynia) (SNL L5/L6 rats; 4 hours after drug treatment) [%] | Rat SNL tactile allodynia, anti-allodynia (statement) (SNL L5/L6 rats)
– | – | – | – | – | CC1(C)C(=O)NCCN1C(=O)CC(c1ccc(F)cc1)c1ccc(F)cc1 [Compound 15, 4-(3,3-bis(4-fluorophenyl)propanoyl)-3,3-dimethylpiperazin-2-one] | 11 | 8 | 15 | –
993 | 333 | 102 | – | – | O=C1CN(C(=O)NC(c2ccccc2)c2ccccc2)CCN1 [Compound 1, N-benzhydryl-3-oxopiperazine-1-carboxamide] | 10 | 19 | 26 | significant anti-allodynia
– | – | – | – | – | O=C1CN(C(=O)C(c2ccc(Cl)cc2)c2ccc(Cl)cc2)CCN1 [Compound 13, 4-(2,2-bis(4-chlorophenyl)acetyl)piperazin-2-one] | – | – | – | significant anti-allodynia
1087 | 730 | 30 | – | – | O=C1CN(C(=O)C(c2ccccc2)c2ccccc2)CCN1 [Compound 7, 4-(2,2-diphenylacetyl)piperazin-2-one] | 10 | 9 | 14 | –
– | – | – | 0.93 | 0.86 | O=C1CN(C(=O)CC(c2ccc(F)cc2)c2ccc(F)cc2)CCN1 [Compound 9, 4-(3,3-bis(4-fluorophenyl)propanoyl)piperazin-2-one] | 7 | 10 | 7 | significant anti-allodynia
185 | 132 | 40.2 | – | – | O=C1CN(C(=O)C=C(c2ccccc2)c2ccccc2)CCN1 [Compound 8, 4-(3,3-diphenylacryloyl)piperazin-2-one] | 17 | 24 | 17 | –

Structure (SMILES) | Dose Normalized AUC [1] [nM·h] | Dose Normalized Cmax [1] [nM] | Tmax [1] [min] | Fraction current remaining ([2]; concentration tested 10 μM) | Fraction current remaining ([2]; concentration tested 100 μM) | Rat SNL Tactile Allodynia (% Antiallodynia) (SNL L5/L6 rats; 1 hour after drug treatment) [%] | Rat SNL Tactile Allodynia (% Antiallodynia) (SNL L5/L6 rats; 2 hours after drug treatment) [%] | Rat SNL Tactile Allodynia (% Antiallodynia) (SNL L5/L6 rats; 4 hours after drug treatment) [%] | Rat SNL tactile allodynia, anti-allodynia (statement) (SNL L5/L6 rats)
O=C1CN(C(=O)C[S+]([O-])C(c2ccccc2)c2ccccc2)CCN1 (centres unmarked) [Compound 2, 4-(2-(benzhydrylsulfinyl)acetyl)piperazin-2-one] | 283 | 182 | 30 | – | – | – | – | – | –
